In test [1] the target is CAAX prenyl protease 2 (Homo sapiens, UniProt Q9Y256). Briefly: inhibition of Ras-converting CAAX protease Rce1 – biochemical, yeast membranes, quenched-peptide fluorescence, cherry-pick, dose response (AID 588849).
Another test addresses Trypsin (Sus scrofa, UniProt P00761). Briefly: trypsin protease activity blockade – biochemical, quenched peptide fluorescence, cherry-pick, selectivity assay for Rce1 protease inhibitor project, dose response (AID 488789).
The target in test [2] is CAAX prenyl protease 2 (Saccharomyces cerevisiae S288c, UniProt Q03530). Format: biochemical.
For test [3], the target named is T1, Tyrosine-protein phosphatase non-receptor type 7 (Homo sapiens, UniProt P35236).
T1 sequence (P35236 whole entry): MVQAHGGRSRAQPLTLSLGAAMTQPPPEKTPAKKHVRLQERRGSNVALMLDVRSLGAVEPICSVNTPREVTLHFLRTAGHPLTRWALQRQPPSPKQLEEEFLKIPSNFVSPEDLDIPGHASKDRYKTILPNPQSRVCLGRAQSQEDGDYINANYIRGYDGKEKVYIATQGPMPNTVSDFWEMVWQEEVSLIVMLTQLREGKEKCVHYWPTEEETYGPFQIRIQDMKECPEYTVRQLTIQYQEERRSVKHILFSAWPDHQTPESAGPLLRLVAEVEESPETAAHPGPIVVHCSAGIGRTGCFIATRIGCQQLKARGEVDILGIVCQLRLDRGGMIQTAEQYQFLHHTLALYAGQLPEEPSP
In words: SAR analysis of chemical inhibitors of HePTP using a Fluorescent assay - Set 2. [Related pubchem assays (depositor defined):AID1059, AID1077, AID1661, AID2085, AID521]. The class given is functional.

For test [4], the target named is Dual specificity protein phosphatase 3 (Homo sapiens, UniProt P51452). In words: SAR VHR1 Fluorescent Assay for In Vitro dose response studies Set 2. [Related pubchem assays (depositor defined):AID1654, AID1661, AID1878]. Format: functional.
Test [5] deals with T2, Coagulation factor XII (Homo sapiens, UniProt P00748).
T2 sequence (P00748 whole entry): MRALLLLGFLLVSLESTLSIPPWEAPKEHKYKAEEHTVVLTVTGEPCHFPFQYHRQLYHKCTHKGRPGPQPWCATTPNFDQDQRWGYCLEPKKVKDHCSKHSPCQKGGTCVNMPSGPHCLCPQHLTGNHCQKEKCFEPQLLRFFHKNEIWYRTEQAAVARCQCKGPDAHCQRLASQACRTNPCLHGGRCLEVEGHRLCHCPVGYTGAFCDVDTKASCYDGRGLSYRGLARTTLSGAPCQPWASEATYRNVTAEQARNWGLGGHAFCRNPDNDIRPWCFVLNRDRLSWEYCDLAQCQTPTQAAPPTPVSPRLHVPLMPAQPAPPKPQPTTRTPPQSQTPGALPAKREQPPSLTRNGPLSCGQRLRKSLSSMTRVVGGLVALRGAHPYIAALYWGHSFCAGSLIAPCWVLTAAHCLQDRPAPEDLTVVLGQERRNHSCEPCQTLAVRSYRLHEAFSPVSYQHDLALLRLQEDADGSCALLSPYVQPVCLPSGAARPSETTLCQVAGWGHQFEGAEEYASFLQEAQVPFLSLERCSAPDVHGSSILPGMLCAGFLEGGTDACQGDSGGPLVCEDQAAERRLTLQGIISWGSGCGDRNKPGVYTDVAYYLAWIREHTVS
Briefly: Factor XIIa Dose Response Confirmation from Single Well HTS. [Related pubchem assays (depositor defined):AID701]. The class given is functional.

Test [6] concerns the target T2, Coagulation factor XII. In words: activated coagulation factor XII inhibitor potency, concentration-effect curve, cell-free (AID 716). Format: functional.

Each structure is given as a SMILES string. Active and inactive are the calls of the source. A value given as a limit tells only on which side of the number the result lay.

For orientation: AC50 means the concentration giving half of the maximal activity seen. Broadly, the IC50 is the concentration at which inhibition is half-maximal.

Chain of Dual specificity protein phosphatase 3 (P51452 whole entry): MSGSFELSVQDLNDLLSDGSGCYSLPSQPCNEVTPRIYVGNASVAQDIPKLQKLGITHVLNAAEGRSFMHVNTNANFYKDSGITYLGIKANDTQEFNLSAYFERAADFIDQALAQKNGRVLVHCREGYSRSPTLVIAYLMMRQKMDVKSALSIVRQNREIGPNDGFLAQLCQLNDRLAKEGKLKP
Chain of CAAX prenyl protease 2 (Saccharomyces cerevisiae S288c, UniProt Q03530) (Q03530 whole entry): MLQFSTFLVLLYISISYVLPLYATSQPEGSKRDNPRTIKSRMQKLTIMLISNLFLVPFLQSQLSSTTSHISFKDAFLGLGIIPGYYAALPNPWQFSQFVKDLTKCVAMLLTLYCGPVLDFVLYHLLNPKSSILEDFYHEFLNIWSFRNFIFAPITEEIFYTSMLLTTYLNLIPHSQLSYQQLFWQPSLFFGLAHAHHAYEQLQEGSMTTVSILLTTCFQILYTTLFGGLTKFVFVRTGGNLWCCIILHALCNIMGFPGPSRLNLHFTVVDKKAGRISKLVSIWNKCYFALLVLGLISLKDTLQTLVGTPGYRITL
Chain of Trypsin (P00761 whole entry): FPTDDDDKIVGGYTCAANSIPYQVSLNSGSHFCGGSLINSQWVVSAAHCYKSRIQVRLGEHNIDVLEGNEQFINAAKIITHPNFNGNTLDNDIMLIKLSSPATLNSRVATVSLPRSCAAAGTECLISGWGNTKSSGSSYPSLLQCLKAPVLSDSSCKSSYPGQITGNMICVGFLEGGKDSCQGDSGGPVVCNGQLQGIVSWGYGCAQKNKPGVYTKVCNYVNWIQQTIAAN
Chain of CAAX prenyl protease 2 (Homo sapiens, UniProt Q9Y256) (Q9Y256 whole entry): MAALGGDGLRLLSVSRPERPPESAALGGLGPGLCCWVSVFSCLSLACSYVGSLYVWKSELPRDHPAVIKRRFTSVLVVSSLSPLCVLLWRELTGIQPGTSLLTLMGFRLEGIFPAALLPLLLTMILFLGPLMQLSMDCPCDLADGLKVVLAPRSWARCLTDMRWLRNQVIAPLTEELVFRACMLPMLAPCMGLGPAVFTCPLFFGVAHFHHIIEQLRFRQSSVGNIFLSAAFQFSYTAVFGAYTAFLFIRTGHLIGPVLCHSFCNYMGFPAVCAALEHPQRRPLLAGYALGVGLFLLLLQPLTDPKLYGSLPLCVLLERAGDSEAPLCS

Take `Cc1csc(NC(=O)c2ccccc2O)n1`: the values for the AC50 at CAAX prenyl protease 2 [1] and on Trypsin were 19.3 µM (active) and > 100 µM (inactive), respectively.

`CS(=O)(=O)Nc1ccccc1C(=O)NC1CC2CCC1C2` (configuration not stated): the AC50 at CAAX prenyl protease 2 [2] was 3.03 µM (active).

On to `Cc1ccc(-n2c(N)c(C(=O)N3CCOCC3)sc2=S)cc1`, for which the IC50 in test [3] and in test [4] was > 100 µM (inactive) in each case.

With `O=C(Oc1nsnc1N1CCOCC1)c1ccccc1`, at Coagulation factor XII [5], the IC50 was 4.38 µM (active).

Take `Cc1nnc(NC(=O)C2CCN(c3cnccn3)CC2)s1`: the IC50 at Coagulation factor XII [6] is > 50 µM (inactive).

The values above are taken from ChEMBL document CHEMBL1201862, “PubChem BioAssay data set” (2004).
